Data from patent US20090104705A1, “Ascorbic acid conjugates” (priority 2005, published 2009).

What was measured:
[1] = system: human aortic endothelial cells (HAECs); assay: MTT assay, cytotoxicity in human aortic endothelial cells; assay type: cell-based; conditions: 25 to 100 μM, up to 66 hours, 20% bovine calf serum
Description: FIG. 13 illustrates the results of cytotoxicity studies in human aortic endothelial cells (HAECs) using the MTT assay (described below). […] The observed cytotoxic effect of HNE is relatively moderate, which is likely due to the presence of 20% bovine calf serum in the culture medium of HAECs, causing inactivation of HNE by adduction to serum proteins and other serum constituents. […] FIG. 13, panel C further illustrates the large difference in cytotoxicity between HNE and ascorbylated HNE in HAECs treated with both compounds at 75 or 100 μM for 42 hours. The results of these experiments strongly support the hypothesis that ascorbylation represents a detoxification pathway for HNE and other electrophilic LPO products.
With reference to […], Cells were grown to confluence in 96-well plates and exposed to 25, 50, 75 or 100 μM HNE or ascorbylated HNE for up to 66 hours (Panels A and B). Cell viability was assessed by spectrophotometric (590 nm) measurement of the reduction of MTT (3-[4,5-dimethylthiazol-2-yl]-2,5-diphenyltetrazolium bromide) by dehydrogenases in respiring mitochondria, and expressed as a percentage of the control (1.0% ethanol). […] The data are presented as mean of five observations (±SD). Asc-HNE=ascorbylated HNE; numbers in legends refer to μM concentrations.

[2] = system: ICAM-1 expression in HUVECs; conditions: serum-free environment; cited from earlier work
[3] = system: ICAM-1 expression in BAECs; assay: ICAM-1 expression in BAECs by ELISA; assay type: cell-based; conditions: 25 μM, 24 hours, 20% bovine calf serum, data not shown
Experimental: The effect of HNE and ascorbylated HNE on endothelial activation also was determined. To this end, BAECs were exposed to 25 μM HNE or ascorbylated HNE for 24 hours in the presence of 20% bovine calf serum, and subsequently ICAM-1 expression was measured by ELISA. […] In contrast, HNE was reported to inhibit LPS-induced NFκB activation in human monocytic cells (Herbst et al. 1999; Page et al. 1999) and constitutive ICAM-1 expression in HUVECs (Herbst et al. 1999). […] However, unlike the incubation conditions with 20% bovine calf serum, the experiments by Herbst and colleagues were conducted in a serum-free environment in order to avoid inactivation of HNE by serum proteins (see above).

[4] = Stability of ascorbyl-HNE conjugate in stored plasma; assay type: physicochemical, human
Experimental: A problem with current biomarkers of oxidative stress is the formation of ex vivo-artifacts arising from sample instability or sample handling. The presence of the ascorbyl-HNE adduct in plasma is not due to an ex vivo-artifact. Moreover, the stability of the ascorbyl-HNE adduct was confirmed to ensure that its concentration was not fluctuating as a function of time. Specifically, aliquots of a plasma sample were analyzed over a time period of one month.

[5] = system: ICAM-1 expression in HAECs; assay: ICAM-1 expression in HAECs by ELISA; assay type: cell-based, human; conditions: 35 μM, 24 hours, 5% bovine calf serum
Description: This example establishes that vitamin C has the ability to abolish HPODE-induced endothelial activation. HAECs were exposed to HPODE or HPODE pretreated with ascorbate. […] Thus, vitamin C pre-treatment of HPODE leads to inactivation of HPODE with respect to its effect on ICAM-1 expression, which supports the proposition that vitamin C-induced degradation of LOOHs and subsequent ascorbylation of the resultant LPO products represents a pathway for elimination and detoxification of LOOHs and their degradation products (Scheme 2). […] As mentioned earlier, there is extensive data in the literature showing that specific LPO products elicit endothelial activation.
With reference to FIG. 14 HPODE was prepared by soybean lipoxygenase treatment of a solution of linoleic acid in phosphate buffer, pH 8.2, with stirring and air bubbling. […] The solution was acidified, and the mixture of HPODE-derived products was recovered from the aqueous solution by extraction with ethyl acetate. The combined ethyl acetate layers were washed with water to remove traces of ascorbic acid. The residue on evaporation was dissolved in 1.0 ml of ethanol, and the solution termed ‘ascorbate-treated HPODE’. […] Activation of HAECs was measured by quantifying ICAM-1 using a commercially available ELISA kit (Zhang and Frei 2001).

Molecule	cell viability of HAECs (MTT assay) [1]	concentration at which the inhibitory effect on ICAM-1 expression was observed [2] [µM]	change of ICAM-1 expression compared to the vehicle control [3]	stability of the conjugate in plasma ([4]; 4° C.)	change in the ascorbyl-HNE conjugate concentration ([4]; plasma aliquots over one month at 4° C.) [%]	ICAM-1 expression compared to the vehicle control [5]
CCCCCC(O)C=CC=O (centres unmarked) [HNE, 4-hydroxy-2-nonenal]	progressive decrease in cell viability	≥ 5	Neither HNE nor ascorbylated HNE caused a change of ICAM-1 expression			
CCCCCC1OC(O)CC1C1(O)C(=O)OC2C(O)COC21O (stereo not drawn) [ascorbyl-HNE conjugate, 3,3α,6-trihydroxy-3-(5-hydroxy 2-pentyl-tetrahydro-furan-3-yl)-tetrahydro-furo[3,2-b]furan-2-one]	not cytotoxic at any of the concentrations tested		Neither HNE nor ascorbylated HNE caused a change of ICAM-1 expression	stable for at least a month	5.2	
hydroperoxy octadecadienoic acids [HPODE]						increase in ICAM-1 expression
